Test results published in patent US7273875B2, “Naphthyridine derivatives, their preparation and their use as phosphodiesterase isoenzyme 4 (PDE4) inhibitors” (Novartis AG, priority 2001, dated 2007).
Structures can show the parent of a compound that is named as a salt.

Columns and labels:
[1] = target: T1, human PDE4D (Homo sapiens, UniProt Q08499); experiment: PDE4 isoenzyme inhibition assay (SPA), PDE4D; format: biochemical; settings: [3H]-cAMP, 1 μM cAMP, 30-60 minutes at room temperature, 1% DMSO
T1 construct: PDE4 cDNA constructs containing the coding regions of the three isoenzymes; made in house; host or cells: Sf21 insect cells (baculovirus, Bac-To-Bac)
T1 sequence (Q08499 1-673 isoform Q08499-2): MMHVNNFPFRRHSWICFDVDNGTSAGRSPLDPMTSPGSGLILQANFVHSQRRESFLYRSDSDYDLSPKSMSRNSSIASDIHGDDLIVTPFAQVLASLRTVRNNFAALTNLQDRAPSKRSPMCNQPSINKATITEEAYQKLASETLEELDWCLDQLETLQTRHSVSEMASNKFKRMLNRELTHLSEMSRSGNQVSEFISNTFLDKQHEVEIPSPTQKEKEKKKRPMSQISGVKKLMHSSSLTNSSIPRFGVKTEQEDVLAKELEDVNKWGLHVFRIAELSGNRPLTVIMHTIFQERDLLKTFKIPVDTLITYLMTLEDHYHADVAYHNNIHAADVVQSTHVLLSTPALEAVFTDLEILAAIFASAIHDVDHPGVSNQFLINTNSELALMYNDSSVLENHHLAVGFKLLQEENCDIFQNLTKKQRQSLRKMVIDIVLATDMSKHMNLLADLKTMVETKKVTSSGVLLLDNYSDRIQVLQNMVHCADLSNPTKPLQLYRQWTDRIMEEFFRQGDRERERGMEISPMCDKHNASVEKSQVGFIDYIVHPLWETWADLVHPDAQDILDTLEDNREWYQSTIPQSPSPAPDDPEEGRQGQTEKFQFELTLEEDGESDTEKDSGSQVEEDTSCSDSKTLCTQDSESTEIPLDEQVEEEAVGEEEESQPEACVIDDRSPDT
From the text: PDE4 Isoenzyme Inhibition Assay
Cloning: GATEWAY flanked PDE4 cDNA constructs containing the coding regions of the three isoenzymes, human PDE4A, human PDE4B, and human PDE4D are generated by PCR and transposed into the GATEWAY shuttle vector pDONOR-201. In addition a 6-histidine tag is introduced by PCR onto the carboxyl terminal end of each of the constructs to facilitate protein purification. Following sequence verification, the PDE4 constructs are transposed into the GATEWAY expression vector pDEST-8, Positive recombinants are selected and transposed into E. coli strain DH10Bac and bacmid produced transfected into SF21 cells using Bac-To-Bac (Invitrogen Life Technologies). Positive transfections are selected and used to generate high titer viral stocks for use in protein expression.
PDE4 Expression: Sf21 cells are grown to a density of 2×10^6 cells/ml and infected with human PDE4A, PDE4B or PDE4D3 containing baculovirus to a multiplicity of infection (m.o.i.) of 1 for 72 hours. The infected cells are harvested by centrifugation at 1,400 g for 4 minutes at 4° C. and the cell pellets are frozen at −80° C. Sf21 (Spodoptera frugiperda 21) insect cells are routinely maintained at densities between […] and 3×10^6 cells/ml in SF00 Serum Free Medium (Invitorgen Life Technologies). Sf21 cells ([…]) are resuspended in 100 ml cold (4° C.) Lysis Buffer (50 mM Na2HPO4, 200 mM NaCl, 10 mM Imidazole). Cells are incubated on ice for 30 minutes then centrifuged at 15,000 g for 20 minutes at 4° C.
PDE4 Purification: The 6 Histidine-tagged PDE4 proteins are isolated from crude cell lysates by a batch-wise Ni-NTA purification strategy (QIAGEN). N-NTA resin is first pre-rinsed to remove ethanol preservative and equilibrated with Lysis Buffer. Cell lysate is added, (10 ml 50% Ni-NTA slurry resin per 50 ml lysate), and gently rotated on a mixer at 4° C. for 1-2 hours. The sample is then centrifuged at 1,000 g for 5 minutes at 4° C. using Denley benchtop centrifuge. The supernatant is removed and the resin is washed 3 times with 50 ml ice cold Wash Buffer (50 mM Na2HPO4, 300 mM NaCl and 20 mM imidazole) followed by centrifugation at 1,000 g for 5 min at 4° C. The 6His-tagged protein is eluted from the resin with 3×5 ml ice cold Elution Buffer (50 mM NaH2PO4, 300 mM NaCl, 250 mM imidazole) and collected by centrifugation at 1,000 g for 5 minutes at 4° C. The supernatants are then pooled before buffer exchange and concentration using a VivaScience 20 ml SK 0.2 μM Concentrator. Samples are aliquoted and stored at −20° C.
PDE4 Assay: The assay is based on Amersham Pharmacia Biotech Scintillation Proximity Assay (SPA) technology. Enzyme is diluted with enzyme dilution buffer (10 mM Tris-HCl, pH7.5 containing 1 mM EDTA) in order to obtain between 10-30% total substrate hydrolysis during the assay. The enzymatic reaction is started by adding 10 μl diluted enzyme to 80 μl substrate (0.1 μCi [3H]-cAMP, 1 μM cAMP) and 10 μl inhibitor solution in a 96-well microtiter plate. After 30-60 minutes incubation at room temperature the reaction is stopped by adding 50 μl PDE SPA beads (20 mg/ml). After 30 minutes the plate is centrifuged (3000 g, 10 minutes) and counted (Packard TopCount).
Inhibitor stock solutions are prepared in 100% dimethylsulphoxide (DMSO) and diluted with DMSO/water to achieve 10 concentrations to cover the range of 0-100% inhibition. The concentration of DMSO is kept constant at 1% (v/v) throughout the assay.
The concentration at which 50% inhibition occurs (IC50) is determined from inhibition—concentration curves in a conventional manner.

Structure (SMILES) | IC50 [1] [nM] | melting point [°C]
O=C(O)C1CCC(c2cc3cccnc3c(-c3cccc(F)c3)n2)CC1 (stereo not drawn) [Example 12, 4-[8-(3-Fluorophenyl)-[1,7]naphthyridin-6-yl]-cyclohexanecarboxylic acid] | 21 | 
N#Cc1cccc(-c2nc(C3CCC(C(=O)O)CC3)cc3cccnc23)c1 (stereo not drawn) (as salt: potassium) [Example 3, 4-[8-(3-Cyano-phenyl)-[1,7]naphthyridin-6-yl]-cyclohexanecarboxylic acid] |  | > 250
CCOC(=O)C1CCC(c2cc3cccnc3c(-c3cccc(C#N)c3)n2)CC1 (stereo not drawn) [Example 1, 4[8-(3-Cyano-phenyl)-[1,7]naphthyridin-6-yl]-cyclohexanecarboxylic acid ethyl ester] | 38 | 
N#Cc1cccc(-c2nc(C3CCC(C(=O)O)CC3)cc3cccnc23)c1 (stereo not drawn) [Example 3, 4-[8-(3-Cyano-phenyl)-[1,7]naphthyridin-6-yl]-cyclohexanecarboxylic acid] | 9 | 
COc1cccc(-c2nc(C3CCC(C(=O)O)CC3)cc3cccnc23)c1 (stereo not drawn) [Example 10, 4-[8-(3-Methoxy-phenyl)-[1,7]naphthyridin-6-yl]-cyclohexanecarboxylic acid] | 25 | 209 to 212

Results, then the compound that gave them:

IC50 [1] [nM] | melting point [°C] | Structure (SMILES)
9 | 177.6 to 178.2 | CSc1cccc(-c2nc(C3CCC(C(=O)O)CC3)cc3cccnc23)c1 (stereo not drawn) [Example 15, 4-[8-(3-Methylsulfanyl-phenyl)-[1,7]naphthyridin-6-yl]-cyclohexanecarboxylic acid]
57 |  | O=C(O)C1CCC(c2cc3cccnc3c(-c3cccc(OC(F)(F)F)c3)n2)CC1 (stereo not drawn) [Example 14, 4-[8-(3-Trifluoromethoxyphenyl)-[1,7]naphthyridin-6-yl]-cyclohexanecarboxylic acid]
